Results on 1 compound are retold here after PMC11124362, “Metabolism, Disposition, Excretion, and Potential Transporter Inhibition of 7–16, an Improving 5-HT2A Receptor Antagonist and Inverse Agonist for Parkinson’s Disease” (Molecules, 2024).

What is called IC50 is the concentration that inhibits the measured activity by half.

A short description of series [1]: Excretion and metabolite identification in urine and feces of intact rats. Type of series: in vivo, Sprague-Dawley rats. The following applies: intact rats, 0–168 h, oral 3 mg/100 µCi/kg. How it is done: In the urine and feces excretion experiment, six rats (3 females and 3 males) were administered a single oral dose of [^14C]7–16 at 3 mg/100 µCi/kg. Urine, feces and cage washing/cleaning solution samples were collected from 0 to 168 h following drug administration at the following time intervals: 0–8, 8–24 h (0–24 h for feces), 24–48, 48–72, 72–96, 96–120, 120–144, and 144–168 h. In the biliary excretion experiment, 8 rats using a bile duct cannula (BDC) (4 females and 4 males) were administered a single oral dose of [^14C]7–16 at 3 mg/100 µCi/kg. Bile, urine, feces, and cage washing solution were collected from before and 0–72 h after oral administration at the following time intervals: 0–4, 4–8 (urine 0–8), 8–24 (feces 0–24), 24–48, and 48–72 h. All samples were collected and refrigerated at −20 °C until determination of the radioactive concentrations by liquid scintillation counter (Perkin Elmer Corporation, Waltham, MA, USA). Urine, feces, and bile samples at each time period were mixed by equal percentages of either volume or weight. After the mixed samples were treated, the radio-profiles and metabolite identification in the bile, urine, and feces samples were carried out by LC-RAM and UPLC-Q Exactive HRMS, and the TRA% of each metabolite in plasma and the percentage of dose (dose%) of each compound in urine, feces, and bile samples were calculated.

In series [2] the test system is CYP2B6. Briefly: Metabolic phenotype by rhCYP isozymes, CYP2B6. Type of series: in vitro ADME, human. The following applies: 7–16 1 µM. The protocol:
(§1) Based on the result of metabolite identification, two metabolites were selected as targets for metabolic phenotyping analysis. Seven CYP isozymes (CYP1A2, CYP2B6, CYP2C8, CYP2C9, CYP2C19, CYP2D6, and CYP3A4) were investigated using the rhCYP isozymes method. In brief, 7–16 (1 µΜ) was incubated with each rhCYP isozyme ([…]) in 100 mM sodium phosphate buffer (pH 7.4) containing 3 mM magnesium chloride. After 10 min of preincubation at 37 °C, the reactions were initiated by adding NADPH (1 mM) and then incubated at 37 °C in a shaking water bath for 0, 5, 15, and 30 min. The specific substrates of each rhCYP isozyme were incubated as the above method to confirm the activity of the incubation system. The samples were prepared in triplicates. The reactions were terminated by adding three times the volume of ice-cold acetonitrile (600 µL) and stored at −20 °C until analysis. After pre-treatment, the samples were determined by the LC–MS/MS (Shimadzu Exion-Triple Quad 4500) method. The relative contribution rate of each isozyme to the metabolism of 7–16 was evaluated in HLMs using the following formula: Contributionx% = Vx × Abundancex (pmol/mg protein)/Σ(Vi × Abundancei). Vx (µL/min/pmol) is the production rate of metabolites for each rhCYP isozyme.

In series [3] the target is 5-HT2A receptor. Set-up: method as in PMID 35279606. The following applies: cited from earlier work.
In series [4] the test system is CYP2D6. Set-up: method as in PMID 35279606. As to conditions: previous study; read-out: CYP2D6 inhibition IC50; cited from earlier work.
Series [5] is described as follows: Metabolite identification in rat liver microsomes. As to conditions: 7–16 10 µM, liver microsomes 1 mg/mL, NADPH, 37 °C, 60 min. Type of series: in vitro ADME. The protocol:
(§2) In accordance with our previous methods, 7–16 (10 µM) was incubated with mouse, rat, dog, monkey, and human liver microsome proteins (1 mg/mL) in 100 mM sodium phosphate buffer (pH 7.4) containing 10 mM magnesium chloride and 2 mM NADPH at 37 °C for 60 min. All samples were prepared in duplicates. The reactions were terminated by adding three times the volume of ice-cold acetonitrile (600 µL) and stored at −20 °C until analysis. Control samples without NADPH and 0-time point samples were included. As a positive control, testosterone (10 µM), which was metabolized to produce the hydroxylation metabolite, was used as a substrate to confirm the activity of the incubation system.
(§3) After pre-treatments, the samples were analyzed by an Acquity UPLC system coupled with a diode array detector (Waters Corporation, Milford, MA, USA) and Q Exactive HRMS (Thermo Electron Corporation, Waltham, MA, USA) (UPLC–UV-Q Exactive HRMS). Samples were separated on an Agilent XDB C18 column (150 × 2.1 mm i.d. 3.5 μm, Agilent Corporation, Santa Clara, CA, USA) at 40 °C by gradient elution with water and acetonitrile containing 0.1% formic acid. The flow rate was 0.40 mL/min. The ultraviolet (UV) detection wavelength was 286 nm. Q Exactive HRMS were operated at positive ion mode (3.5 kV) using a heating electrospray ionization source. Mass calibration was required to be performed before conducting experiments so as to achieve the best mass accuracy and mass calibration should be performed every five days. The metabolites were detected by full MS/dd-MS^2 analysis from m/z 100 to m/z 1000. The resolution of the first-class scan and second-class scan was 70,000 and 17,500, respectively. Thermo Compound Discover software was used to identify expected and unknown metabolites, and we finally proposed the 7–16 metabolic pathways based on the deduced metabolites and relevant drug biotransformation knowledge.

Series [6] deals with CYP2C8. The series can be described thus: Metabolic phenotype by rhCYP isozymes, CYP2C8. Type of series: in vitro ADME, human. The following applies: 7–16 1 µM. How it is done: as §1
Series [7] deals with CYP2C9. Set-up: method as in PMID 35279606. As to conditions: previous study; read-out: CYP2C9 inhibition IC50; cited from earlier work.
Series [8] in a line: Metabolite identification in monkey liver microsomes. Type of series: in vitro ADME. As to conditions: 7–16 10 µM, liver microsomes 1 mg/mL, NADPH, 37 °C, 60 min. How it is done: as §2, §3
In general terms: Microsomes from liver hold many membrane-bound enzymes, among them those of drug oxidation.

The test system of series [9] is CYP2C9. Briefly: Metabolic phenotype by rhCYP isozymes, CYP2C9. Type of series: in vitro ADME, human. The following applies: 7–16 1 µM. How it is done:
as §1

For series [10], the system named is 5-HT2A receptors. Set-up: method as in PMID 35279606. As to conditions: head twitches test in rats; cited from earlier work.

With `CN1CCC(N(Cc2ccc(F)cn2)C(=O)NCc2ccc(OCC(F)(F)F)cc2)CC1` [7–16, 3-(4-(2,2,2-trifluoroethoxy)benzyl)-1-((5-fluoropyridin-2-yl)methyl)-1-(1-methylpiperidin-4-yl) urea], the “recovery of radioactivity in cage rinse/wash, percent of dose” value in series [1] was found to be 4.06%. For the same compound, the “recovery of radioactivity in feces, percent of dose” value in [1] is 55.0%. The “recovery of radioactivity in urine, percent of dose” value in series [1] is reported as 39.9%. Further, in [1] (mean of both sexes), the “total recovery of radioactivity, percent of administered dose” value is on record as 98.9%. The “relative contribution of CYP2B6 to metabolism” value in series [2] is “little or no contribution”. For the same compound, the half-maximal inhibitory concentration (IC50) was 0.00054 µM in [3] (previous study, read-out: 5-HT2A receptor antagonist activity IC50); > 62.9 µM in [4]; > 62.9 µM in series [7]. The “fold higher 5-HT2A receptor antagonist activity than pimavanserin” value in series [3] (versus pimavanserin) is 50 fold. Moreover, the “Relative Abundance, UV Area% Rat” value in series [5] amounted to 86.1%. In addition, the “relative contribution of CYP2C8 to metabolism” value in [6] was “little or no contribution”. Besides, the “Relative Abundance, UV Area% Monkey” value in series [8] is on record as 90.6%. Further, in series [9], the “relative contribution of CYP2C9 to metabolism” value is given as “little or no contribution”. Further, the “potency for blocking 5-HT2A receptors relative to pimavanserin” value in [10] is “at least four times more potent than pimavanserin”.
